The source made the active and inactive calls. No cut-off for these calls is given here.
Experiments:
[1] = Antiproliferative activity against HMEC1 after 4 days by coulter counter analysis; assay type: functional; details: Homo sapiens, HMEC-1, 96 h
[2] = Antiproliferative activity against MBEC after 3 days by coulter counter analysis; assay type: functional, Mus musculus
[3] = Antiproliferative activity against BAEC after 3 days by coulter counter analysis; assay type: functional; details: Bos taurus, 72 h
L1210 = assay: Antiproliferative activity against mouse L1210 cells after 48 to 96 hrs by coulter counter analysis; assay type: functional, cell-based
CCRF-CEM = assay: Antiproliferative activity against human CEM cells after 48 to 96 hrs by coulter counter analysis; assay type: functional, cell-based
HeLa = assay: Antiproliferative activity against human HeLa cells after 4 days by coulter counter analysis; assay type: functional, cell-based; details: 96 h
Tubulin (Bos taurus) [4] = target: T1, Tubulin (Bos taurus) (UniProt Q6B856+Q862L2+Q862F3); assay: Displacement of MTC from calf brain tubulin colchicine binding site at 20 uM by fluorescence spectroscopic analysis
MDA-MB-231 [5] = assay: Antimigratory activity against human MDA-MB-231 cells at 2 to 10 uM after 17 hrs by Transwell assay; assay type: functional, cell-based
MDA-MB-231 [6] = assay: Antiinvasive activity against human MDA-MB-231 cells at 2 to 10 uM after 17 hrs by Transwell assay; assay type: functional, cell-based
Serum = assay: (§1) Metabolic stability in 10% human serum assessed as compound remaining at 100 uM measured after 3 hrs by HPLC analysis; assay type: ADME; details: serum, 3 h, 100 µM
Liver = assay: (§2) Metabolic stability in 50% mouse liver extract assessed as compound remaining at 100 uM measured after 3 hrs by HPLC analysis; assay type: ADME, tissue-based; details: 3 h, 100 µM
[7] = Cell cycle arrest in HMEC1 cells assessed as accumulation at subG1 phase at 1 uM after 24 hrs by propidium iodide staining-based flow cytometric analysis; assay type: functional; details: Homo sapiens, HMEC-1
[8] = Cell cycle arrest in HMEC1 cells assessed as accumulation at G2/M phase at 1 uM after 24 hrs by propidium iodide staining-based flow cytometric analysis; assay type: functional; details: Homo sapiens, HMEC-1
HMEC-1 [9] = assay: Induction of apoptosis in HMEC1 at 0.3 uM after 24 hrs by propidium iodide staining-based flow cytometric analysis; assay type: functional; details: Homo sapiens
MDA-MB-231 [10] = assay: Competitive binding affinity to beta-tubulin in human MDA-MB-231 cells assessed as inhibition of protein-N/N'-ethylene-bis(iodoacetamide) adduct formation at 10 uM preincubated for 16 hrs followed by N/N'-ethylene-bis(iodoacetamide) formation measured after 1.5 hrs by Western blot analysis; assay type: cell-based
Tubulin (Bos taurus) [11] = target: T1, Tubulin (Bos taurus); assay: Displacement of R-PT from calf brain tubulin at 25 degC by fluorescence spectroscopic analysis
Tubulin (Homo sapiens) = Tubulin (Homo sapiens) (UniProt P68371+Q9H4B7+P0DPH7+P68366+Q13509+Q71U36+P04350+Q3ZCM7+P07437+P68363+Q9BQE3+Q6PEY2+Q13885+Q9BVA1+Q9BUF5); assay: Binding affinity to tubulin in human MDA-MB-231 cells assessed as inhibition of mitotic spindle formation at 1 uM after 8 hrs by DAPI staining-based fluorescence microscopic analysis; assay type: cell-based
HMEC-1 [12] = assay: Antivascular activity in HMEC1 cells assessed as destruction of cord like structure at 3 uM after 90 mins by matrigel assay; assay type: functional, cell-based; details: Homo sapiens
MDA-MB-231 [13] = assay: Antimigratory activity against human MDA-MB-231 cells at 0.4 uM after 17 hrs by Transwell assay; assay type: functional, cell-based
MDA-MB-231 [14] = assay: Antiinvasive activity against human MDA-MB-231 cells at 0.4 uM after 17 hrs by Transwell assay; assay type: functional, cell-based
MDA-MB-231 [15] = assay: Antiproliferative activity against human MDA-MB-231 cells at 0.4 uM after 17 hrs; assay type: functional, cell-based
[16] = as §1; assay type: ADME; details: 10% human serum, read-out: Stability
[17] = as §2; assay type: ADME, tissue-based; details: 50% mouse liver extract, read-out: Stability

`CCC(Nc1ccccc1O)=C1C(=O)CC(c2ccccc2)CC1=O` (stereo not given) gave an IC50 [1] of 22 µM, an IC50 [2] of 13 µM and an IC50 [3] of 35 µM. The IC50 (L1210) was 13 µM, the IC50 (CCRF-CEM) was 15 µM and the IC50 (HeLa) was 11 µM. The inhibition (Tubulin (Bos taurus) [4]) was “Active”, the inhibition (MDA-MB-231 [5]) was “inactive” and the inhibition (MDA-MB-231 [6]) was “inactive”. The Stability (Serum) was “Unstable” and the Stability (Liver) was “Unstable”.
With `COc1ccccc1NC(C)=C1C(=O)CC(c2ccccc2)CC1=O` (stereo not given) the IC50 [1] was 0.09 µM, the IC50 [2] was 0.12 µM and the IC50 [3] was 0.09 µM. For the same compound, the IC50 (L1210) was 0.16 µM, the IC50 (CCRF-CEM) was 0.18 µM and the IC50 (HeLa) was 0.18 µM. For the same compound, the Activity [7] was “Active”, the Activity [8] was “Active” and the Activity (HMEC-1 [9]) was “Active”. For the same compound, the inhibition (MDA-MB-231 [10]) was “Active”, the inhibition (Tubulin (Bos taurus) [4]) was “Active” and the Ka (Tubulin (Bos taurus) [11]) was 9.6 ×10⁶ /M. For the same compound, the inhibition (Tubulin (Homo sapiens)) was “Active”, the Activity (HMEC-1 [12]) was “Active” and the inhibition (MDA-MB-231 [13]) was “Active”. The inhibition (MDA-MB-231 [14]) was “Active”, the Activity (MDA-MB-231 [15]) was “Active” and the remaining at 3 h, 100 µM [16] was 70%. For the same compound, the remaining at 3 h, 100 µM [17] was greater than 90%.

Reference: ChEMBL document CHEMBL3259599, “Novel colchicine-site binders with a cyclohexanedione scaffold identified through a ligand-based virtual screening approach” (J Med Chem, 2014)
